Test results taken from ChEMBL document CHEMBL5137063, “Medicinal Chemistry and Chemical Biology of Nurr1 Modulators: An Emerging Strategy in Neurodegeneration” (J Med Chem, 2022).
Values belong to the compound of their own block, whether it stands above or below them.

Assays:
[1] = target: T1, Nuclear receptor subfamily 4 group A member 2 (Homo sapiens, UniProt P43354); test: Agonist activity at human Nurr1 measured by Gal4-Nurr1 hybrid reporter gene assay
[2] = target: T1, Nuclear receptor subfamily 4 group A member 2; test: Antagonist activity at full length human Nurr1 expressed in HEK293T cells co-expressing 3xNBRE3-luciferase at 50 uM incubated for 18 hrs by luciferase transactivation assay relative to control; type: cell-based; design: scale not given: the % may be the effect or the level left
[3] = target: T1, Nuclear receptor subfamily 4 group A member 2; test: Antagonist activity at full length human Nurr1 expressed in MN9D cells co-expressing 3xNBRE3-luciferase at 50 uM incubated for 18 hrs by luciferase transactivation assay relative to control; type: cell-based; design: scale not given: the % may be the effect or the level left
[4] = target: T1, Nuclear receptor subfamily 4 group A member 2; test: Agonist activity at Nurr1 in human SK-N-BE(2)-C cells measured by NBRE-based luciferase reporter gene assay; type: cell-based
[5] = target: T1, Nuclear receptor subfamily 4 group A member 2; test: Agonist activity at Nurr1 in human SK-N-BE(2)-C cells measured by Gal4-based luciferase reporter gene assay; type: cell-based
[6] = target: T2, Nuclear receptor subfamily 4 group A member 2 (Mus musculus, UniProt Q06219); test: Agonist activity at Nurr1 in mouse MN9D cells measured by NBRE-based luciferase reporter gene assay; type: cell-based
T2 sequence (Q06219 whole entry, the tested form may be a part): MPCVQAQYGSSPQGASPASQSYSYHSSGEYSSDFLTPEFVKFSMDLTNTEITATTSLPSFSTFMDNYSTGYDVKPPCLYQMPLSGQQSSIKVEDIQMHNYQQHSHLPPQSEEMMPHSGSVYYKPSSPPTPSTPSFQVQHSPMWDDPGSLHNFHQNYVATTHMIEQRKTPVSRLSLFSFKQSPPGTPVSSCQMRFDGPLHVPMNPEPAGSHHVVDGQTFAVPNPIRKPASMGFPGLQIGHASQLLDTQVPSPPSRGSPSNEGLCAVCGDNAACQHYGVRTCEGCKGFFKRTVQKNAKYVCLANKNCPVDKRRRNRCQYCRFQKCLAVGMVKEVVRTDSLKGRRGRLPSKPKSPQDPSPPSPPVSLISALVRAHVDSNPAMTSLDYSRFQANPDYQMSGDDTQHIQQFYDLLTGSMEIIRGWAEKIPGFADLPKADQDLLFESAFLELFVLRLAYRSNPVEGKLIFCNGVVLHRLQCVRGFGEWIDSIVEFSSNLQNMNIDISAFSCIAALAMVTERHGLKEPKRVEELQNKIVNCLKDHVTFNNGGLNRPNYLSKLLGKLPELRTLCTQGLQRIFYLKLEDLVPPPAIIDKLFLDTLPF

[7] = target: T2, Nuclear receptor subfamily 4 group A member 2; test: Agonist activity at Nurr1 in mouse MN9D cells measured by Gal4-based luciferase reporter gene assay; type: cell-based
[8] = target: T3, Nuclear receptor subfamily 4 group A member 2 (Rattus norvegicus, UniProt Q07917); test: Agonist activity at Nurr1 in rat N27-A cells measured by NBRE-based luciferase reporter gene assay; type: cell-based
T3 sequence (Q07917 whole entry, the tested form may be a part): as the sequence (Q06219 whole entry, the tested form may be a part) above, with S134G, P182R counted along it

[9] = target: T3, Nuclear receptor subfamily 4 group A member 2; test: Agonist activity at Nurr1 in rat N27-A cells measured by Gal4-based luciferase reporter gene assay; type: cell-based
[10] = target: T1, Nuclear receptor subfamily 4 group A member 2; test: Agonist activity at Nurr1 ligand binding domain (unknown origin) measured by Gal4-based reporter gene assay
[11] = target: T1, Nuclear receptor subfamily 4 group A member 2; test: Binding affinity towards Nurr1 ligand binding domain (unknown origin) measured by tryptophan fluorescence spectroscopy

T1 sequence (P43354 whole entry, the tested form may be a part): as the sequence (Q06219 whole entry, the tested form may be a part) above, with S131T, S134G, D354E counted along it

EC50 [4]: 3 µM | EC50 [5]: 3 µM | EC50 [6]: 3 µM | EC50 [7]: 3 µM | EC50 [8]: 3 µM | EC50 [9]: 3 µM
SMILES: CCCCC[C@H](O)/C=C/[C@H]1[C@H](O)CC(=O)[C@@H]1CCCCCCC(=O)O [ALPROSTADIL]

Kd [11]: 50 µM
SMILES: CCCCC/C=C\C/C=C\CCCCCCCC(=O)O [LINOLEIC ACID]

EC50 [4]: 5 µM | EC50 [5]: 5 µM | EC50 [6]: 5 µM | EC50 [7]: 5 µM | EC50 [8]: 5 µM | EC50 [9]: 5 µM
SMILES: CCCCC[C@H](O)/C=C/[C@H]1C=CC(=O)[C@@H]1CCCCCCC(=O)O [PROSTAGLANDIN A1]

Second part, the compound before the results:

SMILES: Fc1ccc(-c2c[nH]c3ccccc23)cc1
EC50 [1]: 7.7 µM

SMILES: CC/C=C\C/C=C\C/C=C\C/C=C\C/C=C\C/C=C\CCC(=O)O
Activity [2]: 25% | Activity [3]: 25%

SMILES: CCN(CC)Cc1cc(Nc2ccnc3cc(Cl)ccc23)ccc1O [AMODIAQUINE]
EC50 [10]: 20 µM

SMILES: CCCCC/C=C\C/C=C\C/C=C\C/C=C\CCCC(=O)O [ARACHIDONIC ACID]
Kd [11]: 50 µM

SMILES: CCCCCCCC/C=C\CCCCCCCC(=O)O [OLEIC ACID]
Kd [11]: 50 µM
